The values that follow come from ChEMBL document CHEMBL1201862, “PubChem BioAssay data set” (2004).

Each structure is given as a SMILES string.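 Tested at 5 concentrations; 48 h exposure; 96-well plates; endpoints linearly interpolated, else capped at highest concentration. The concentration for 50% growth inhibition is given as GI50.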 Calls of active or inactive are those of the source. No stated cut-off is given here; in the data, active = GI50 up to about 1.1 µM and inactive = higher.

Test in all cases: NCI tumour cell line growth inhibition, 48 h
The test system of test [1] is 786-0.
The test system of test [2] is HCT-116.
In test [3] the test system is HOP-62.
Test [4] has as its system HT-29.
For test [5], the system named is KM12.
Test [6] deals with M14.
In test [7] the test system is NCI-H226.
Test [8] has as its system NCI-H23.
The test system of test [9] is NCI-H460.
Test [10] deals with NCI/ADR-RES.
In test [11] the test system is OVCAR-3.
The test system of test [12] is SN12C.
In test [13] the test system is SNB-75.
In test [14] the test system is SR.
Test [15] has as its system TK-10.
Test [16] relates to UACC-257.
The subject of test [17] is MOLT-4.
Test [18] relates to UO-31.

On to `Clc1cccc(/C=N/C23CC4CC(CC(C4)C2)C3)c1Cl`, for which the GI50 was > 10 µM (inactive) in test [1]; 6.35 µM (inactive) in [2]; > 10 µM (inactive) in test [3]; > 10 µM (inactive) in test [4]; > 10 µM (inactive) in test [5]; > 10 µM (inactive) in [6]. In addition, the GI50 in test [7], in test [8], in [9], in test [10], in [11] and in test [12] was > 10 µM (inactive) in each case. In addition, the GI50 in [13] was 5.36 µM (inactive); in test [14] it was 0.637 µM (active); in test [15], > 10 µM (inactive); in test [16], > 10 µM (inactive).

For `C=CCSC(C)=O`, the GI50 in [1], in test [2], in test [3], in test [4], in test [5] and in [6] was > 100 µM (inactive) throughout. The GI50 in test [17] was > 10 µM (inactive); in test [7], > 100 µM (inactive); in test [8], > 100 µM (inactive); in test [9], > 100 µM (inactive); in test [10], > 100 µM (inactive); in test [11], > 100 µM (inactive). The GI50 in test [12], in [13], in test [14], in test [15] and in test [18] was > 100 µM (inactive) throughout.

`Cc1cc(=O)oc2c(CN(CCCl)CCCl)c(O)ccc12`: the GI50 in [1] is 33.4 µM (inactive); in test [2], 27.8 µM (inactive); in test [3], 26.5 µM (inactive); in test [4] it was 22.7 µM (inactive); in [5] it was 78.7 µM (inactive); in [6], 39.8 µM (inactive). Also, the GI50 in test [17] is 4.99 µM (inactive); in test [7], 35.3 µM (inactive); in test [8] it was 43.3 µM (inactive); in [9], 17.4 µM (inactive); in [10], 71.9 µM (inactive); in test [11], 80.5 µM (inactive). For the same compound, the GI50 in test [12] was 20.7 µM (inactive); in [13], 53.5 µM (inactive); in test [14], 43.6 µM (inactive); in test [16] it was > 100 µM (inactive); in test [18], 41.8 µM (inactive).

On to `Cc1c2c(n(C)c1C)C(=O)C1C(C2=O)C2(C)c3ccccc3C1(C)c1ccccc12` (configuration not stated), for which the GI50 in test [1], in [2], in [3], in test [4], in test [5] and in test [6] was > 100 µM (inactive) each time. Further, the GI50 in [17], in test [7], in [8], in test [9], in test [10] and in test [11] was > 100 µM (inactive) in each case. In addition, the GI50 in [13] was > 100 µM (inactive); in test [14], 24.4 µM (inactive); in [15], > 100 µM (inactive); in test [16], > 100 µM (inactive); in [18] it was > 100 µM (inactive).

Take `O=C1C2=C(SCCS2)C(=O)c2c(Sc3ccc(Cl)cc3)c(Sc3ccc(Cl)cc3)c(Sc3ccc(Cl)cc3)c(Sc3ccc(Cl)cc3)c21`: the GI50 in [1] was 78.5 µM (inactive); in test [2] it was > 100 µM (inactive); in [3], 42.7 µM (inactive); in [5] it was > 100 µM (inactive); in [6] it was 33.8 µM (inactive); in [17], 17.1 µM (inactive). Moreover, the GI50 in [7] was 40.8 µM (inactive); in [8], 74.3 µM (inactive); in [9] it was > 100 µM (inactive); in test [10], > 100 µM (inactive); in test [11], > 100 µM (inactive); in test [12] it was > 100 µM (inactive). Also, the GI50 in [13] is 19.1 µM (inactive); in test [14], 21.8 µM (inactive); in test [16] it was > 100 µM (inactive); in test [18], > 100 µM (inactive).

`CCOC1(OCC)N=C(N)C2(C#N)C3(C(=O)N(C(C)C)N=C3C)C12C#N` (configuration not stated): the GI50 in test [1], in test [2], in test [3], in [4], in test [5] and in [6] was > 100 µM (inactive) throughout. The GI50 in test [17] was > 100 µM (inactive); in test [7], > 100 µM (inactive); in [8], > 100 µM (inactive); in test [9], > 100 µM (inactive); in [10], > 100 µM (inactive); in test [11], 44.3 µM (inactive). Moreover, the GI50 was > 100 µM (inactive) in test [12]; > 100 µM (inactive) in test [13]; 45.4 µM (inactive) in [14]; > 100 µM (inactive) in test [16]; > 100 µM (inactive) in test [18].

With `CCN1CN(c2ccccc2)C2(CCN(CCCSc3ccc(F)cc3)CC2)C1=O`, the GI50 in [1] is 13.7 µM (inactive); in test [2], 4.36 µM (inactive); in test [3] it was 4.31 µM (inactive); in test [4], 3.36 µM (inactive); in test [5] it was 14.3 µM (inactive); in [6], 6.75 µM (inactive). The GI50 in [17] was 4.88 µM (inactive); in test [7] it was 16.8 µM (inactive); in test [8], 10.4 µM (inactive); in [10] it was 12.2 µM (inactive); in test [11] it was 13.9 µM (inactive); in test [12] it was 8.47 µM (inactive). The GI50 is 16.4 µM (inactive) in [13]; 11.8 µM (inactive) in test [14]; 12.7 µM (inactive) in test [15]; 6.11 µM (inactive) in test [16]; 5.97 µM (inactive) in test [18].

In the case of `C=CC(C)(C)n1cc(C2=C(O)C(=O)C(c3cn(C(C)(C)C=C)c4ccccc34)=C(OC(C)=O)C2=O)c2ccccc21`, the GI50 in test [1] was 1.47 µM (inactive); in test [2], 0.429 µM (active); in test [3] it was 0.628 µM (active); in [4], 0.807 µM (active); in test [5], 0.565 µM (active); in test [6], 1.25 µM (inactive). Moreover, the GI50 was 0.475 µM (active) in [17]; 1.36 µM (inactive) in test [7]; 0.692 µM (active) in test [8]; 0.592 µM (active) in [9]; 1.64 µM (inactive) in test [10]; 1.04 µM (active) in test [11]. Besides, the GI50 was 0.456 µM (active) in test [12]; 0.419 µM (active) in test [13]; 0.298 µM (active) in [14]; 0.64 µM (active) in test [16]; 1.07 µM (active) in test [18].

Regarding `CCOC(=O)C(C)(C)/C=C\C(Cl)=C(Cl)Cl`, the GI50 in test [1], in [2], in test [3], in test [4], in [5] and in test [6] was > 100 µM (inactive) in each case. Moreover, the GI50 in test [17], in test [7], in test [8], in test [10], in test [11] and in test [12] was > 100 µM (inactive) in each case. Moreover, the GI50 in test [13], in test [14], in test [15], in test [16] and in test [18] was > 100 µM (inactive) throughout.

With `NC1CC2NC3CCCCC3NC2CC1N` (configuration not stated), the GI50 in test [1] was 30 µM (inactive); in [2], 24.1 µM (inactive); in test [4], 27.4 µM (inactive); in test [5], 33.7 µM (inactive); in [6] it was 67.9 µM (inactive); in [17], 24.9 µM (inactive). Moreover, the GI50 was 48.9 µM (inactive) in test [7]; 32.4 µM (inactive) in test [8]; 29 µM (inactive) in test [9]; 30.1 µM (inactive) in test [10]; 40.8 µM (inactive) in [11]; 35 µM (inactive) in [12]. In addition, the GI50 in [13] was 25.1 µM (inactive); in test [14], 29.2 µM (inactive); in test [15], 41.8 µM (inactive); in test [16] it was 37.9 µM (inactive); in test [18] it was 27 µM (inactive).

Take `CC(=O)OCC1OC(SC2=NC(=O)/C(=C/c3ccccc3)S2)C(OC(C)=O)C(OC(C)=O)C1OC(C)=O` (configuration not stated): the GI50 in test [1] was 16.9 µM (inactive); in test [2] it was 29.4 µM (inactive); in [3], 38.5 µM (inactive); in [4] it was 37.8 µM (inactive); in test [5] it was 36.9 µM (inactive); in test [6] it was 31.9 µM (inactive). The GI50 in test [17] is 21.8 µM (inactive); in [7], 33.8 µM (inactive); in [8], 52.5 µM (inactive); in test [9], 42.2 µM (inactive); in [10], 30.4 µM (inactive); in test [11], 19.7 µM (inactive). Moreover, the GI50 is 49.8 µM (inactive) in test [12]; 18.2 µM (inactive) in test [13]; 10.9 µM (inactive) in test [14]; 34.2 µM (inactive) in [16]; 23.1 µM (inactive) in [18].

For `CN1CN(c2ccccc2)C2(CCN(CC(C)(c3ccc(F)cc3)C3OCCCO3)CC2)C1=O` (configuration not stated), the GI50 in [1] was 20.4 µM (inactive); in [2], 14.9 µM (inactive); in test [3], 16.6 µM (inactive); in test [4], 10.6 µM (inactive); in [5], 15.5 µM (inactive); in test [6] it was 16.9 µM (inactive). Besides, the GI50 was 9.71 µM (inactive) in test [17]; 18.9 µM (inactive) in [7]; 14.9 µM (inactive) in [8]; 12.9 µM (inactive) in [10]; 11.5 µM (inactive) in test [11]; 18.1 µM (inactive) in test [12]. Also, the GI50 in test [13] is 18.7 µM (inactive); in [14], 10 µM (inactive); in [15] it was 15.5 µM (inactive); in [16], 16 µM (inactive); in test [18], 2.32 µM (inactive).
